From article PMC9232105, “S-Adenosylmethionine–responsive cystathionine β-synthase modulates sulfur metabolism and redox balance in Mycobacterium tuberculosis” (Science Advances, 2022)

What was measured:
[1] = molecular target: T1, cystathionine β-synthase (MtbCbs, Rv1077) (Mycobacterium tuberculosis, UniProt P9WP51); assay: acid-ninhydrin and LC-MS/MS cystathionine formation; lead acetate kinetics with Cys; type: biochemical; parameters: gene cbs; full-length WT MtbCbs
[2] = molecular target: T1, cystathionine β-synthase (MtbCbs, Rv1077); assay: cryo-EM ([…] Å) with SAM + Ser; cystathionine formation by acid-ninhydrin and LC-MS/MS; type: binding; parameters: gene cbs; full-length WT MtbCbs
[3] = molecular target: T1, cystathionine β-synthase (MtbCbs, Rv1077); type: biochemical; parameters: gene cbs; full-length WT MtbCbs
[4] = molecular target: T1, cystathionine β-synthase (MtbCbs, Rv1077); assay: biochemical; type: binding; parameters: gene cbs; full-length WT MtbCbs, C-terminal 6×His
SEC + SEC-MALS = molecular target: the molecule itself; assay: SEC + SEC-MALS

Molecule: NC(CCS)C(=O)O [L-Hcys]
- acid-ninhydrin and LC-MS/MS cystathionine formation; lead acetate kinetics with [1]: MtbCbs produces Cysth from Ser + Hcys and Cys + Hcys

Molecule: N[C@@H](CO)C(=O)O [L-serine]
- cryo-EM (4.25 Å) with SAM + Ser; cystathionine formation by acid-ninhydrin and L [2]: formation of external aldimine/aminoacrylate at the active site, which indicates association of Ser with PLP

Molecule: N[C@@H](CS)C(=O)O [L-cysteine]
- lead acetate H2S assay with steady-state kinetics; LC-MS/MS of lanthionine [3]: lead-acetate assay confirmed that MtbCbs generates H2S using Cys or Hcys + Cys but not from Hcys alone

Molecule: C[S+](CC[C@H](N)C(=O)[O-])C[C@H]1O[C@@H](n2cnc3c(N)ncnc32)[C@H](O)[C@@H]1O (some centres unmarked) [S-adenosylmethionine]
- Kd [4]: ~128 µM

B1: Mycobacterium tuberculosis cystathionine β-synthase (MtbCbs, Rv1077), wild type (enzyme)
chain: MRIAQHISELIGGTPLVRLNSVVPDGAGTVAAKVEYLNPGGSSKDRIAVKMIEAAEASGQLKPGGTIVEPTSGNTGVGLALVAQRRGYKCVFVCPDKVSEDKRNVLIAYGAEVVVCPTAVPPHDPASYYSVSDRLVRDIDGAWKPDQYANPEGPASHYVTTGPEIWADTEGKVTHFVAGIGTGGTITGAGRYLKEVSGGRVRIVGADPEGSVYSGGAGRPYLVEGVGEDFWPAAYDPSVPDEIIAVSDSDSFDMTRRLAREEAMLVGGSCGMAVVAALKVAEEAGPDALIVVLLPDGGRGYMSKIFNDAWMSSYGFLRSRLDGSTEQSTVGDVLRRKSGALPALVHTHPSETVRDAIGILREYGVSQMPVVGAEPPVMAGEVAGSVSERELLSAVFEGRAKLADAVSAHMSPPLRMIGAGELVSAAGKALRDWDALMVVEEGKPVGVITRYDLLGFLSEGAGRR
modifications: PLP bound to K44 (internal aldimine)
notes: also called WT MtbCbs; native MtbCbs
- stoichiometry N (SEC + SEC-MALS): 4
